Experimental data: publication PMC7139804 (2020)

Tests used:
[1] = system: CPG-tel26 (DNA, G4) TTAGGGTTAGGGTTAGGGTTAGGGTT; experiment: G4-CPG affinity chromatography; conditions: 50 mM KCl; washing solution with 10% DMSO, 10% ethanol; oligonucleotide on CPG; errors within ± 2%
[2] = system: CPG-cmyc (DNA, G4) TGGGGAGGGTGGGGAGGGTGGGGAAGGTGGGGA; experiment: G4-CPG affinity chromatography; conditions: 50 mM KCl; washing solution with 10% DMSO, 10% ethanol; oligonucleotide on CPG; errors within ± 2%
[3] = system: CPG-ds27 (DNA, hairpin) CGCGAATTCGCGTTTCGCGAATTCGCG; experiment: G4-CPG affinity chromatography; conditions: 50 mM KCl; washing solution with 10% DMSO, 10% ethanol; oligonucleotide on CPG; errors within ± 2%
[4] = system: tel26 (DNA, G4) TTAGGGTTAGGGTTAGGGTTAGGGTT; experiment: fluorescence titration and Job plot; conditions: 20 mM KCl, 5 mM KH2PO4; 10% DMSO, pH 7, 20 °C; 2 µM ligand, DNA up to 10 µM; no tight binding
[5] = system: cmyc (DNA, G4) TGGGGAGGGTGGGGAGGGTGGGGAAGGTGGGGA; experiment: fluorescence titration and Job plot; conditions: 20 mM KCl, 5 mM KH2PO4; 10% DMSO, pH 7, 20 °C; 2 µM ligand, DNA up to 10 µM; no tight binding
[6] = system: ds27 (DNA, hairpin) CGCGAATTCGCGTTTCGCGAATTCGCG; experiment: fluorescence titration and Job plot; conditions: 20 mM KCl, 5 mM KH2PO4; 10% DMSO, pH 7, 20 °C; 2 µM ligand, DNA up to 10 µM; no tight binding
[7] = system: tel26 (DNA, G4) TTAGGGTTAGGGTTAGGGTTAGGGTT; experiment: CD melting at 290 nm; conditions: 20 mM KCl, 5 mM KH2PO4; 10% DMSO, pH 7; 2 µM DNA, 12 µM compound (1:6)
[8] = system: tel26 (DNA, G4) TTAGGGTTAGGGTTAGGGTTAGGGTT; experiment: fluorescence titration, independent equivalent-sites fit; conditions: 20 mM KCl, 5 mM KH2PO4, 10% DMSO, pH 7, 20 °C, 2 µM ligand
[9] = system: cmyc (DNA, G4) TGGGGAGGGTGGGGAGGGTGGGGAAGGTGGGGA; experiment: as above; conditions: 20 mM KCl, 5 mM KH2PO4, 10% DMSO, pH 7, 20 °C, 2 µM ligand
[10] = system: ds27 (DNA, hairpin) CGCGAATTCGCGTTTCGCGAATTCGCG; experiment: as above; conditions: 20 mM KCl, 5 mM KH2PO4, 10% DMSO, pH 7, 20 °C, 2 µM ligand

Compound | Bound Ligand (%) [1] [%] | Bound Ligand (%) [2] [%] | Bound Ligand (%) [3] [%] | further results
CN(C)CCCN1C(=O)c2ccc3c4c(c(NCCOCCOCCN)cc(c24)C1=O)C(=O)N(CCCN(C)C)C3=O | 97 |  | 41 | 
CN(C)CCCN1C(=O)c2cc(NCCOCCOCCNc3cc4c5c(c(Br)cc6c5c3C(=O)N(CCCCCC(=O)O)C6=O)C(=O)N(CCCCCC(=O)O)C4=O)c3c4c(cc(Br)c(c24)C1=O)C(=O)N(CCCN(C)C)C3=O | 73 |  | 38 | 
CN(C)CCCNc1cc2c3c(c(NCCOCCOCCNc4cc5c6c(ccc7c6c4C(=O)N(CCCCCC(=O)O)C7=O)C(=O)N(CCCCCC(=O)O)C5=O)cc4c3c1C(=O)N(CCCN(C)C)C4=O)C(=O)N(CCCN(C)C)C2=O | 90 | 87 | 71 | 
CCCNc1cc2c3c(ccc4c3c1C(=O)N(CCCN(C)C)C4=O)C(=O)N(CCCN(C)C)C2=O | 85 | 95 | 50 | 
CN(C)CCCN1C(=O)c2ccc3c4c(c(NCCCCCCCN)cc(c24)C1=O)C(=O)N(CCCN(C)C)C3=O | 100 | 97 | 48 | 
CN(C)CCCN1C(=O)c2ccc3c4c(c(NCCOCCO)cc(c24)C1=O)C(=O)N(CCCN(C)C)C3=O | 99 | 99 | 30 | ΔTm [7]: +15 °C; Kb [8]: 2.4 (±0.1) × 10^7 M^−1; Kb [9]: 2.6 (±0.2) × 10^7 M^−1; Kb [10]: 1.9 (±0.2) × 10^7 M^−1
CCCNc1cc2c3c(c(NCCCN(C)C)cc4c3c1C(=O)N(CCCN(C)C)C4=O)C(=O)N(CCCN(C)C)C2=O | 92 |  | 46 | 

Now from value to molecule, other results behind:

Bound Ligand (%) [1] [%] | Bound Ligand (%) [2] [%] | Bound Ligand (%) [3] [%] | Compound | further results
67 | 64 | 29 | CN(C)CCCN1C(=O)c2cc(NCCOCCOCCNc3cc4c5c(ccc6c5c3C(=O)N(CCCCCC(=O)O)C6=O)C(=O)N(CCCCCC(=O)O)C4=O)c3c4c(cc(Br)c(c24)C1=O)C(=O)N(CCCN(C)C)C3=O | 
75 | 79 | 71 | CN(C)CCCN1C(=O)c2cc(NCCCCCCCNc3cc4c5c(ccc6c5c3C(=O)N(CCCCCC(=O)O)C6=O)C(=O)N(CCCCCC(=O)O)C4=O)c3c4c(cc(Br)c(c24)C1=O)C(=O)N(CCCN(C)C)C3=O | 
77 |  | 61 | CN(C)CCCN1C(=O)c2ccc3c4c(c(NCCCCCCCNc5cc6c7c(ccc8c7c5C(=O)N(CCCCCC(=O)O)C8=O)C(=O)N(CCCCCC(=O)O)C6=O)cc(c24)C1=O)C(=O)N(CCCN(C)C)C3=O | 
68 | 79 | 33 | CN(C)CCCN1C(=O)c2ccc3c4c(c(NCCOCCOCCNc5cc6c7c(c(Br)cc8c7c5C(=O)N(CCCCCC(=O)O)C8=O)C(=O)N(CCCCCC(=O)O)C6=O)cc(c24)C1=O)C(=O)N(CCCN(C)C)C3=O | binding [4]: weak; binding [5]: weak; binding [6]: weak
85 | 79 | 34 | CN(C)CCCN1C(=O)c2ccc3c4c(c(NCCOCCOCCNc5cc6c7c(ccc8c7c5C(=O)N(CCCCCC(=O)O)C8=O)C(=O)N(CCCCCC(=O)O)C6=O)cc(c24)C1=O)C(=O)N(CCCN(C)C)C3=O | 
